The subject of this assay is BDF1 mice, Lewis lung carcinoma iv, survival T/C. Put plainly: NCI In Vivo Anticancer Drug Screen. Data for tumor model Lewis Lung Carcinoma (intravenous) in B6D2F1 (BDF1) mice. The settings on record: endpoint: median survival time, higher = longer survival. The procedure: The antitumor activity of compounds was measured in mice bearing transplantable tumors. Survival or tumor size were measured and the results are expressed as the measurement made in the treated group (T) divided by the measurement made in the vehicle treated control group (C). The tumor model used in this assay is Lewis Lung Carcinoma (intravenous) in B6D2F1 (BDF1) mice

[1] abbreviates: dose: 1.0 mg/kg/injection, schedule: Q01DX009 (ip), vehicle: saline.
Where [2] appears, read: dose: 12.5 mg/kg/injection, schedule: Q01DX009 (ip), vehicle: saline with Tween-80.
The mark [3] stands for this setting: dose: 25.0 mg/kg/injection, schedule: Q01DX009 (ip), vehicle: saline with Tween-80.
Setting [4] is: dose: 50.0 mg/kg/injection, schedule: Q01DX009 (ip), vehicle: saline with Tween-80.
[5] abbreviates: dose: 100.0 mg/kg/injection, schedule: Q01DX009 (ip), vehicle: saline with Tween-80.
The mark [6] stands for this setting: dose: 25.0 mg/kg/injection, schedule: Q01DX009 (ip), vehicle: saline.
Setting [7] is: dose: 50.0 mg/kg/injection, schedule: Q01DX009 (ip), vehicle: saline.
Where [8] appears, read: dose: 100.0 mg/kg/injection, schedule: Q01DX009 (ip), vehicle: saline.
Where [9] appears, read: dose: 200.0 mg/kg/injection, schedule: Q01DX009 (ip), vehicle: saline.

Molecules are shown by their SMILES. “And” between values parts separate entries of the source, which are not always exact repeats. Identical values can stand only once. Inconclusive results and toxic doses are left out.

Take `CC1OC(O[C@H]2/C=C/C=C/C=C/C=C/C=C/C=C/C=C/[C@H](C)[C@@H](O)[C@@H](C)[C@H](C)OC(=O)C[C@H](O)C[C@H](O)CC[C@@H](O)[C@H](O)C[C@H](O)C[C@]3(O)C[C@H](O)[C@@H](C(=O)O)[C@H](C2)O3)C(O)C(N)C1O` (some centres not stated): the T/C is, setting by setting: under setting [1], 105 % of control; (dose: 2.0 mg/kg/injection, schedule: Q01DX009 (ip), vehicle: saline) 109 % of control; (dose: 8.0 mg/kg/injection, schedule: Q01DX009 (ip), vehicle: saline) 109 % of control; (dose: 16.0 mg/kg/injection, schedule: Q01DX009 (ip), vehicle: saline) 124 % of control.

On to `O=S(=O)(N=N/C=C1\C=CC=CN1O)c1cccs1`, for which the T/C is 105 % of control under setting [2], 115 % of control under setting [3], 100 % of control under setting [4] and 92 % of control under setting [5].

As for `CN(N=O)C(=O)N[C@@H](C=O)[C@@H](O)[C@H](O)[C@H](O)CO`, the T/C by setting is: (dose: 16.0 mg/kg/injection, schedule: Q01DX009 (ip), vehicle: other) 109 % of control; (dose: 25.0 mg/kg/injection, schedule: Q01DX009 (ip), vehicle: citric acid) 110 % of control; (dose: 32.0 mg/kg/injection, schedule: Q01DX009 (ip), vehicle: other) 98 % of control; (dose: 64.0 mg/kg/injection, schedule: Q01DX009 (ip), vehicle: other) 112 % of control; (dose: 100.0 mg/kg/injection, schedule: Q01DX009 (ip), vehicle: citric acid) 124 % of control; (dose: 128.0 mg/kg/injection, schedule: Q01DX009 (ip), vehicle: other) 109 % of control.

For the compound `CN(C)c1nc(N(C)C)nc(N(C)C)n1`, the T/C is, setting by setting: under setting [4], 99 % of control; (dose: 59.0 mg/kg/injection, schedule: Q04DX003 (ip), vehicle: saline) 102 % of control; (dose: 88.0 mg/kg/injection, schedule: Q04DX003 (ip), vehicle: saline) 97 % of control; under setting [5], 154 % of control; (dose: 133.0 mg/kg/injection, schedule: Q04DX003 (ip), vehicle: Klucel (hydroxypropylcellulose) (HPC)) 90 % of control; (dose: 133.0 mg/kg/injection, schedule: Q04DX003 (ip), vehicle: saline) 101 % of control and 109 % of control. For the same compound, the T/C runs as follows: (dose: 200.0 mg/kg/injection, schedule: Q01DX009 (ip), vehicle: saline with Tween-80) 92 % of control; (dose: 200.0 mg/kg/injection, schedule: Q04DX003 (ip), vehicle: Klucel (hydroxypropylcellulose) (HPC)) 114 % of control; (dose: 200.0 mg/kg/injection, schedule: Q04DX003 (ip), vehicle: saline) 96 % of control and 105 % of control; (dose: 300.0 mg/kg/injection, schedule: Q04DX003 (ip), vehicle: saline) 95 % of control and 105 % of control; (dose: 450.0 mg/kg/injection, schedule: Q04DX003 (ip), vehicle: saline) 104 % of control; (dose: 675.0 mg/kg/injection, schedule: Q04DX003 (ip), vehicle: saline) 105 % of control.

For the compound `CC[C@](C)(O)C(=O)O[C@H]1C(=O)O[C@@H]2C[C@H]3C(C)=CC(=O)[C@@H](O)[C@]3(C)[C@H]3[C@@]4(O)OC[C@]32[C@@H]1[C@@H](C)[C@H]4O`, the T/C (dose: 0.12 mg/kg/injection, schedule: Q01DX009 (ip), vehicle: steriod suspending solution) was 92 % of control; the T/C (dose: 0.25 mg/kg/injection, schedule: Q01DX009 (ip), vehicle: steriod suspending solution) is 106 % of control; the T/C (dose: 0.5 mg/kg/injection, schedule: Q01DX009 (ip), vehicle: steriod suspending solution) is 99 % of control.

Turning to `CC(=O)O[C@@H]1C(=O)C=C(C)[C@@H]2[C@@H](OC(=O)C=C(C)C)[C@H]3OC(=O)C[C@H]4[C@@H](C)[C@@H](O)[C@]5(O)OC[C@]34[C@H]5[C@@]12C`, the T/C is 107 % of control (dose: 0.12 mg/kg/injection, schedule: Q01DX009 (ip), vehicle: saline); 106 % of control (dose: 0.25 mg/kg/injection, schedule: Q01DX009 (ip), vehicle: saline); 102 % of control (dose: 0.5 mg/kg/injection, schedule: Q01DX009 (ip), vehicle: saline); 107 % of control under setting [1].

With `Clc1cc(Cl)nc(N2CC2)n1`, the T/C (dose: 1.25 mg/kg/injection, schedule: Q01DX009 (ip), vehicle: saline) is 91 % of control; the T/C (dose: 2.5 mg/kg/injection, schedule: Q01DX009 (ip), vehicle: saline) was 103 % of control; the T/C (dose: 5.0 mg/kg/injection, schedule: Q01DX009 (ip), vehicle: saline with Tween-80) was 114 % of control; the T/C (dose: 5.0 mg/kg/injection, schedule: Q01DX009 (ip), vehicle: saline) was 103 % of control.

For `O=C(O)C1CC1.[Ag]`, the T/C (dose: 0.78 mg/kg/injection, schedule: Q01DX009 (ip), vehicle: distilled water + Tween-80) is 96 % of control; the T/C (dose: 1.56 mg/kg/injection, schedule: Q01DX009 (ip), vehicle: distilled water + Tween-80) was 110 % of control; the T/C (dose: 3.12 mg/kg/injection, schedule: Q01DX009 (ip), vehicle: distilled water + Tween-80) was 96 % of control; the T/C (dose: 6.25 mg/kg/injection, schedule: Q01DX009 (ip), vehicle: distilled water + Tween-80) is 100 % of control; the T/C (dose: 12.5 mg/kg/injection, schedule: Q01DX009 (ip), vehicle: distilled water + Tween-80) is 107 % of control.

In the case of `CC(=O)OC1C2(CC3N4C(=O)C5(CO)SSC4(CC31O)C(=O)N5C)OC(C)C(C)(C)C2=O` (configuration not stated), the T/C (dose: 0.62 mg/kg/injection, schedule: Q01DX009 (ip), vehicle: saline) was 171 % of control.

For the compound `O=C1NC(O)CCN1C1OC(CO)C(O)C1O` (configuration not stated), the T/C was 110 % of control (dose: 12.5 mg/kg/injection, schedule: Q01DX009 (ip), vehicle: saline); 100 % of control under setting [6]; 118 % of control under setting [7]; 118 % of control under setting [8]; 98 % of control under setting [9]; 102 % of control (dose: 400.0 mg/kg/injection, schedule: Q01DX009 (ip), vehicle: saline). Besides, the T/C (dose: 800.0 mg/kg/injection, schedule: Q01DX009 (ip), vehicle: saline) was 101 % of control.

`CC1CCC(n2cnc3c(Cl)ncnc32)O1` (configuration not stated): the T/C was 100 % of control (dose: 12.0 mg/kg/injection, schedule: Q01DX009 (ip), vehicle: Klucel (hydroxypropylcellulose) (HPC)); 109 % of control (dose: 25.0 mg/kg/injection, schedule: Q01DX009 (ip), vehicle: Klucel (hydroxypropylcellulose) (HPC)); 98 % of control (dose: 50.0 mg/kg/injection, schedule: Q01DX009 (ip), vehicle: Klucel (hydroxypropylcellulose) (HPC)); 104 % of control (dose: 100.0 mg/kg/injection, schedule: Q01DX009 (ip), vehicle: Klucel (hydroxypropylcellulose) (HPC)); 96 % of control (dose: 200.0 mg/kg/injection, schedule: Q01DX009 (ip), vehicle: Klucel (hydroxypropylcellulose) (HPC)).

Consider `CC(=O)OCc1ncccc1OC(C)=O`, for which the T/C reads like this: under setting [6], 97 % of control; under setting [7], 100 % of control; under setting [8], 101 % of control; under setting [9], 104 % of control.

`O=[N+]([O-])c1ccc(Sc2ccncn2)c([N+](=O)[O-])c1`: the T/C reads like this: under setting [2], 91 % of control; under setting [3], 112 % of control; under setting [4], 95 % of control; under setting [5], 107 % of control.

As to `Cc1c[nH]c(=O)[nH]c1=O`, the T/C by setting is: (dose: 32.0 mg/kg/injection, schedule: Q01DX009 (ip), vehicle: Klucel (hydroxypropylcellulose) (HPC)) 104 % of control; (dose: 64.0 mg/kg/injection, schedule: Q01DX009 (ip), vehicle: Klucel (hydroxypropylcellulose) (HPC)) 114 % of control; (dose: 128.0 mg/kg/injection, schedule: Q01DX009 (ip), vehicle: Klucel (hydroxypropylcellulose) (HPC)) 93 % of control; (dose: 256.0 mg/kg/injection, schedule: Q01DX009 (ip), vehicle: Klucel (hydroxypropylcellulose) (HPC)) 101 % of control; (dose: 512.0 mg/kg/injection, schedule: Q01DX009 (ip), vehicle: Klucel (hydroxypropylcellulose) (HPC)) 92 % of control.

Consider `O=C(NCCCCCCNC(=O)N1CC1)N1CC1`, for which the T/C (dose: 0.3 mg/kg/injection, schedule: Q01DX009 (ip), vehicle: saline) is 104 % of control; the T/C (dose: 0.6 mg/kg/injection, schedule: Q01DX009 (ip), vehicle: saline) was 119 % of control; the T/C (dose: 1.2 mg/kg/injection, schedule: Q01DX009 (ip), vehicle: saline) was 115 % of control; the T/C (dose: 2.4 mg/kg/injection, schedule: Q01DX009 (ip), vehicle: saline) is 120 % of control.
